Laboratory results published in PMC9138505, “Small Molecule 20S Proteasome Enhancer Regulates MYC Protein Stability and Exhibits Antitumor Activity in Multiple Myeloma” (Biomedicines, 2022).
Several values for one entry are separate records, joined by “and”; a condition that tells them apart may be missing. Identical values can stand only once.

Tested on: RPMI-8226 cells
Assay: Gene expression profiling, NanoString nCounter PanCancer Pathways Panel, ROSALIND analysis
Format: cell-based, human
Conditions: RPMI-8226, TCH-165 samples 1-3
Procedure: RPMI-8226 cells were treated with vehicle or TCH-165 (10 μM) for 4 h. Total RNA was obtained using the mirVana miRNA Isolation Kit, with phenol (Thermofisher Scientific; AM1560; Waltham, MA, USA). Total RNA was quantified by Qubit (Thermofisher Scientific; Q32855; Waltham, MA, USA). and gene expression was evaluated against the nCounter® PanCancer Pathways Panel^TM according to the standard NanoString protocol.
Data were analyzed by ROSALIND® [36] with a hyperscale architecture developed by ROSALIND, Inc. (San Diego, CA, USA). Normalization, fold changes and p-values were calculated using criteria provided by NanoString. ROSALIND follows the nCounter® Advanced Analysis protocol of dividing counts within a lane by the geometric mean of the normalizer probes from the same lane. Housekeeping probes to be used for normalization are selected based on the geNorm algorithm, as implemented in the NormqPCR R library. Fold changes and p-values are calculated using the fast method as described in the nCounter Advanced Analysis 2.0 User Manual. The p-value adjustment is performed using the Benjamini–Hochberg method of estimating false discovery rates (FDR). Clustering of genes for the final heatmap of differentially expressed genes was done using the PAM (Partitioning Around Medoids) method using the fpc R library. Hypergeometric distribution was used to analyze the enrichment of pathways, gene ontology, domain structure and other ontologies. The topGO R library was used to determine local similarities and dependencies between GO terms in order to perform Elim pruning correction. Several database sources were referenced for enrichment analysis, including Interpro [40], NCBI [41], MSigDB [42, 43], REACTOME [44], WikiPathways. Enrichment was calculated relative to a set of background genes relevant to the experiment.

CCOC(=O)[C@]1(c2ccccc2)N=C(c2ccc(OC)cc2)N(Cc2ccccc2)[C@@H]1c1ccc(NCc2ccccc2)cc1 [TCH-165]
ABL1 normalized gene expression: 8.417 and 8.4055 and 8.194
ACVR1B normalized gene expression: 5.827 and 5.592 and 5.805
ACVR2A normalized gene expression: 6.629 and 6.427 and 6.2646
AKT1 normalized gene expression: 9.563 and 9.727 and 9.565
AKT2 normalized gene expression: 9.573 and 9.603 and 9.59
AKT3 normalized gene expression: 5.86 and 5.739 and 5.506
ALK normalized gene expression: 5.044 and 4.427 and 3.805
AMH normalized gene expression: 4.488 and 4.27 and 3.291
ANGPT1 normalized gene expression: 7.445 and 7.284 and 7.245
APC normalized gene expression: 7.784 and 7.6193 and 7.522
AR normalized gene expression: 4.723 and 4.093 and 4.653
ARID1A normalized gene expression: 9.641 and 9.688 and 9.749
ARNT2 normalized gene expression: 5.61 and 5.297 and 5.0068
ATM normalized gene expression: 8.202 and 8.069 and 8.0531
ATR normalized gene expression: 9.3284 and 9.349 and 9.258
ATRX normalized gene expression: 10.3284 and 10.1666 and 10.2009
AXIN1 normalized gene expression: 8.978 and 8.914 and 8.769
AXIN2 normalized gene expression: 4.308 and 4.3768 and 4.39
B2M normalized gene expression: 16.2154 and 16.1625 and 16.1882
BAD normalized gene expression: 9.483 and 9.357 and 9.442
BAIAP3 normalized gene expression: 6.488 and 5.962 and 5.926
BAMBI normalized gene expression: 6.259 and 6.476 and 6.341
BAP1 normalized gene expression: 8.78 and 8.732 and 8.643
BAX normalized gene expression: 9.129 and 9.1412 and 9.225
BCL2A1 normalized gene expression: 5.758 and 5.547 and 5.712
BCL2L1 normalized gene expression: 10.1011 and 10.0891 and 10.0785
BCL2 normalized gene expression: 9.695 and 9.7506 and 9.653
BCOR normalized gene expression: 9.105 and 9.1915 and 9.017
BDNF normalized gene expression: 5.044 and 4.739 and 5.0068
BID normalized gene expression: 7.087 and 7.045 and 6.9095
BIRC3 normalized gene expression: 5.924 and 5.759 and 5.5707
BMP2 normalized gene expression: 5.259 and 4.7789 and 5.156
BMP4 normalized gene expression: 3.86 and 2.891 and 3.0682
BMP5 normalized gene expression: 5.758 and 5.124 and 4.653
BMP6 normalized gene expression: 7.818 and 7.896 and 7.955
BMP7 normalized gene expression: 8.639 and 8.544 and 8.563
BMPR1B normalized gene expression: 5.53 and 5.476 and 5.592
BNIP3 normalized gene expression: 9.175 and 9.079 and 9.173
BRAF normalized gene expression: 8.142 and 7.966 and 8.109
BRCA1 normalized gene expression: 10.3606 and 10.2785 and 10.3058
BRCA2 normalized gene expression: 8.271 and 8.2205 and 8.187
CACNA1C normalized gene expression: 4.649 and 4.029 and 4.291
CACNA1D normalized gene expression: 7.445 and 7.37 and 7.163
CACNA1E normalized gene expression: 5.723 and 5.124 and 4.876
CACNA1G normalized gene expression: 4.649 and 4.093 and 4.483
CACNA1H normalized gene expression: 5.259 and 4.3768 and 4.483
CACNA2D1 normalized gene expression: 4.986 and 5.0613 and 5.2646
CACNB2 normalized gene expression: 4.986 and 4.739 and 4.975
CACNB3 normalized gene expression: 5.308 and 5.154 and 5.592
CACNB4 normalized gene expression: 5.208 and 4.996 and 4.841
CACNG1 normalized gene expression: 4.793 and 4.093 and 4.1271
CACNG4 normalized gene expression: 6.629 and 6.927 and 6.75
CALML3 normalized gene expression: 4.986 and 4.476 and 4.528
CALML5 normalized gene expression: 4.924 and 3.739 and 3.291
CAMK2B normalized gene expression: 5.156 and 4.029 and 4.1271
CAPN2 normalized gene expression: 4.488 and 4.7789 and 4.653
CASP3 normalized gene expression: 9.077 and 9.095 and 9.024
CASP7 normalized gene expression: 7.9 and 7.832 and 7.858
CASP8 normalized gene expression: 10.5065 and 10.4134 and 10.4228
CASP9 normalized gene expression: 7.015 and 7.5638 and 7.592
CASP10 normalized gene expression: 6.044 and 5.524 and 5.316
CBL normalized gene expression: 6.94 and 6.657 and 6.805
CBLC normalized gene expression: 2.723 and 1.891 and 3.0682
CCNA1 normalized gene expression: 5.355 and 4.996 and 4.769
CCNA2 normalized gene expression: 11.2764 and 11.2603 and 11.2666
CCNB1 normalized gene expression: 12.2985 and 12.3229 and 12.3132
CCND1 normalized gene expression: 7.343 and 7.069 and 7.218
CCND2 normalized gene expression: 11.5762 and 11.5571 and 11.5967
CCND3 normalized gene expression: 7.732 and 7.547 and 7.5547
CCNE1 normalized gene expression: 7.001 and 7.297 and 7.31
CCNE2 normalized gene expression: 8.015 and 7.524 and 7.638
CCNO normalized gene expression: 5.156 and 4.093 and 4.0682
CCR7 normalized gene expression: 3.723 and 3.817 and 3.483
CD14 normalized gene expression: 5.53 and 5.402 and 5.437
CD19 normalized gene expression: 4.571 and 4.476 and 4.184
CD40 normalized gene expression: 6.86 and 6.729 and 6.901
CDC6 normalized gene expression: 11.1861 and 11.1846 and 11.1724
CDC7 normalized gene expression: 7.884 and 7.9093 and 7.845
CDC14A normalized gene expression: 6.308 and 6.012 and 6.038
CDC14B normalized gene expression: 5.86 and 5.891 and 6.0224
CDC25A normalized gene expression: 8.686 and 8.482 and 8.39
CDC25B normalized gene expression: 9.593 and 9.697 and 9.611
CDC25C normalized gene expression: 8.406 and 8.5 and 8.492
CDH1 normalized gene expression: 5.355 and 5.891 and 5.673
CDK2 normalized gene expression: 8.944 and 8.829 and 8.792
CDK4 normalized gene expression: 10.4105 and 10.495 and 10.3803
CDK6 normalized gene expression: 9.974 and 9.747 and 9.87
CDKN1A normalized gene expression: 7.714 and 7.882 and 7.792
CDKN1B normalized gene expression: 7.835 and 7.891 and 7.722
CDKN1C normalized gene expression: 7.81 and 7.789 and 7.581
